{"source": "patent US10758549B2", "about": "“Compositions of obeticholic acid and methods of use” (Intercept Pharmaceuticals, Inc., priority 2015, dated 2020)", "key": {"[1]": {"tested_on": "subjects with primary biliary cirrhosis", "assay": "Example 8: OCA in combination with UDCA in subjects with primary biliary cirrhosis", "assay_type": "in vivo, human", "protocol": "This example describes a study conducted using an international, multi-center, randomized, double-blind, placebo-controlled, multi-dose, parallel group to determine efficacy and safety of obeticholic acid (OCA) in combination with ursodeoxycholic acid (UDCA) in subjects with primary biliary cirrhosis.\nKey Exclusion criteria • Use of colchicine, methotrexate, azathioprine, or systemic corticosteroids • Screening conjugated (direct) bilirubin>2×ULN; ALT or AST>5×ULN; serum creatinine>1.5 mg/dL (133 μmol/L) • History or presence of hepatic decompensation (e.g., variceal bleeds, encephalopathy, or poorly controlled ascites) • History or presence of other concomitant liver diseases or human immunodeficiency virus (HIV) or other viral hepatitis infection • Clinically significant medical condition, and gastrointestinal conditions affecting drug ADME\nThe percent change (%) in serum ALP from Baseline to End of Study (EOS) was tested where [EOS=Day 85 or last observed ALP value on treatment]\nAlso observed were the absolute and percent changes in serum ALP levels from Baseline to Day 15, Day 29, Day 57, Day 85/ET and Follow-Up (Day 99). Patients were examined for the absolute and percent change in serum gamma-glutamyl transferase (GGT), alanine aminotransferase (ALT), and aspartate aminotransferase (AST) values from Baseline to Day 15, Day 29, Day 57, Day 85/ET and Follow-Up (Day 99). Patients were examined for absolute and percent changes in serum albumin and conjugated (direct) bilirubin values from Baseline to Day 15, Day 29, Day 57, Day 85/ET and Follow-Up (Day 99). Patients' Enhanced liver fibrosis (ELF) score and change in levels of its components, hyaluronic acid, aminoterminal peptide of pro-collagen III, and tissue inhibitor of matrix metalloproteinase-1 from Baseline to Day 85/ET were performed. The absolute and percent changes in levels of C-reactive protein, non-esterified fatty acid, tumor necrosis factor alpha, tumor necrosis factor beta, tumor growth factor beta, bile acids, glutathione, immunoglobulin M, and osteopontin from Baseline to Day 85/ET were taken.\nOverall, 165 subjects (100%) received at least 1 dose of investigational product (ITT and Safety Populations) and 136 subjects comprised the Completer Population. One hundred sixty-one subjects (98%) were included for the analysis of the mITT Population as measured by the percent change in ALP from Baseline to EOS; the mITT Population for sensitivity analysis of the primary endpoint included 163 subjects. It should be noted that the mITT population was defined for the primary analysis as all patients randomized who received at least one dose of study medication and had at least one post-baseline ALP evaluation which was taken at most seven days after their last dose of study medication. (See FIG. 10). The mITT Population for the sensitivity analysis included ALP assessments obtained up to 15 days after the last investigational product use (unlike 7 days for primary endpoint). The number of subjects was balanced across all groups in all analysis populations with the exception of the Completer Population due to the higher proportion of discontinuations with OCA 50 mg."}, "CYP2C8": {"biological_target": "T1, CYP2C8 (Homo sapiens, UniProt P10632)", "T1 sequence (P10632 1-490)": "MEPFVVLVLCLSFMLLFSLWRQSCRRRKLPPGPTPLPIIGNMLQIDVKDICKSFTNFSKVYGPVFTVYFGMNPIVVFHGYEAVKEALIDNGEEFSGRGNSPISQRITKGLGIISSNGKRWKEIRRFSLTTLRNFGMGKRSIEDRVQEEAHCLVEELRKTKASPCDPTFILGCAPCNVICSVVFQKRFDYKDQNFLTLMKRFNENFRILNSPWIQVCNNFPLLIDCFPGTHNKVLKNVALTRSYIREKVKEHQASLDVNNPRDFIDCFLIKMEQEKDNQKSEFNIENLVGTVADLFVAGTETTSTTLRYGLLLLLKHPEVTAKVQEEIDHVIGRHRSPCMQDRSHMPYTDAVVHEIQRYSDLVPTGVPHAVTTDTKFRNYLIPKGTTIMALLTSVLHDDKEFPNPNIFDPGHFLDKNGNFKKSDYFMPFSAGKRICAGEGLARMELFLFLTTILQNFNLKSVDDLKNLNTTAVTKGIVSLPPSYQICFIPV", "assay": "In vitro studies: CYP inhibition", "assay_type": "in vitro ADME"}, "[2]": {"settings": "OCA 10 mg + UDCA, Completer (n = 32)"}, "[3]": {"settings": "OCA 25 mg + UDCA, Completer (n = 42)"}, "[4]": {"settings": "OCA 50 mg + UDCA, Completer (n = 25)"}}}
{"smiles": "CC[C@H]1[C@@H](O)[C@@H]2[C@H](CC[C@]3(C)[C@@H]([C@H](C)CCC(=O)O)CC[C@@H]23)[C@@]2(C)CC[C@@H](O)C[C@@H]12", "note": "[OCA, 3α,7α-dihydroxy-6α-ethyl-5β-cholan-24-oic acid]", "values": [{"measurement": "ALP Mean Change, Baseline to Day 85/ET", "setting": "[1]; [2]", "result": "−86.3", "unit": "U/L"}, {"measurement": "ALP Mean Percent Change, Baseline to Day 85/ET", "setting": "[1]; [2]", "result": "−26.7", "unit": "%"}, {"measurement": "ALP Median Change, Baseline to Day 85/ET", "setting": "[1]; [2]", "result": "−61.3", "unit": "U/L"}, {"measurement": "ALP Median Percent Change, Baseline to Day 85/ET", "setting": "[1]; [2]", "result": "−23.5", "unit": "%"}, {"measurement": "ALP at Day 85/ET, Mean", "setting": "[1]; [2]", "result": 212.3, "unit": "U/L"}, {"measurement": "ALP at Day 85/ET, Median", "setting": "[1]; [2]", "result": 175.0, "unit": "U/L"}, {"measurement": "ALP Mean Change, Baseline to Day 85/ET", "setting": "[1]; OCA 10 mg + UDCA, ITT (n = 38)", "result": "−75.4", "unit": "U/L"}, {"measurement": "ALP Mean Percent Change, Baseline to Day 85/ET", "setting": "[1]; OCA 10 mg + UDCA, ITT (n = 38)", "result": "−23.3", "unit": "%"}, {"measurement": "ALP Median Change, Baseline to Day 85/ET", "setting": "[1]; OCA 10 mg + UDCA, ITT (n = 38)", "result": "−47.5", "unit": "U/L"}, {"measurement": "ALP Median Percent Change, Baseline to Day 85/ET", "setting": "[1]; OCA 10 mg + UDCA, ITT (n = 38)", "result": "−21.0", "unit": "%"}, {"measurement": "ALP at Day 85/ET, Mean", "setting": "[1]; OCA 10 mg + UDCA, ITT (n = 38)", "result": 219.0, "unit": "U/L"}, {"measurement": "ALP at Day 85/ET, Median", "setting": "[1]; OCA 10 mg + UDCA, ITT (n = 38)", "result": 177.5, "unit": "U/L"}, {"measurement": "ALP Mean Change, Baseline to Day 85/ET", "setting": "[1]; [3]", "result": "−76.0", "unit": "U/L"}, {"measurement": "ALP Mean Percent Change, Baseline to Day 85/ET", "setting": "[1]; [3]", "result": "−26.6", "unit": "%"}, {"measurement": "ALP Median Change, Baseline to Day 85/ET", "setting": "[1]; [3]", "result": "−71.3", "unit": "U/L"}, {"measurement": "ALP Median Percent Change, Baseline to Day 85/ET", "setting": "[1]; [3]", "result": "−28.2", "unit": "%"}, {"measurement": "ALP at Day 85/ET, Mean", "setting": "[1]; [3]", "result": 199.0, "unit": "U/L"}, {"measurement": "ALP at Day 85/ET, Median", "setting": "[1]; [3]", "result": 187.5, "unit": "U/L"}, {"measurement": "ALP Mean Change, Baseline to Day 85/ET", "setting": "[1]; OCA 25 mg + UDCA, ITT (n = 48)", "result": "−65.0", "unit": "U/L"}, {"measurement": "ALP Mean Percent Change, Baseline to Day 85/ET", "setting": "[1]; OCA 25 mg + UDCA, ITT (n = 48)", "result": "−24.0", "unit": "%"}, {"measurement": "ALP Median Change, Baseline to Day 85/ET", "setting": "[1]; OCA 25 mg + UDCA, ITT (n = 48)", "result": "−69.3", "unit": "U/L"}, {"measurement": "ALP Median Percent Change, Baseline to Day 85/ET", "setting": "[1]; OCA 25 mg + UDCA, ITT (n = 48)", "result": "−27.8", "unit": "%"}, {"measurement": "ALP at Day 85/ET, Mean", "setting": "[1]; OCA 25 mg + UDCA, ITT (n = 48)", "result": 225.0, "unit": "U/L"}, {"measurement": "ALP at Day 85/ET, Median", "setting": "[1]; OCA 25 mg + UDCA, ITT (n = 48)", "result": 187.5, "unit": "U/L"}, {"measurement": "ALP Mean Change, Baseline to Day 85/ET", "setting": "[1]; [4]", "result": "−101.8", "unit": "U/L"}, {"measurement": "ALP Mean Percent Change, Baseline to Day 85/ET", "setting": "[1]; [4]", "result": "−32.5", "unit": "%"}, {"measurement": "ALP Median Change, Baseline to Day 85/ET", "setting": "[1]; [4]", "result": "−76.0", "unit": "U/L"}, {"measurement": "ALP Median Percent Change, Baseline to Day 85/ET", "setting": "[1]; [4]", "result": "−33.9", "unit": "%"}, {"measurement": "ALP at Day 85/ET, Mean", "setting": "[1]; [4]", "result": 179.1, "unit": "U/L"}, {"measurement": "ALP at Day 85/ET, Median", "setting": "[1]; [4]", "result": 158.5, "unit": "U/L"}, {"measurement": "ALP Mean Change, Baseline to Day 85/ET", "setting": "[1]; OCA 50 mg + UDCA, ITT (n = 41)", "result": "−62.9", "unit": "U/L"}, {"measurement": "ALP Mean Percent Change, Baseline to Day 85/ET", "setting": "[1]; OCA 50 mg + UDCA, ITT (n = 41)", "result": "−20.0", "unit": "%"}, {"measurement": "ALP Median Change, Baseline to Day 85/ET", "setting": "[1]; OCA 50 mg + UDCA, ITT (n = 41)", "result": "−56.5", "unit": "U/L"}, {"measurement": "ALP Median Percent Change, Baseline to Day 85/ET", "setting": "[1]; OCA 50 mg + UDCA, ITT (n = 41)", "result": "−22.7", "unit": "%"}, {"measurement": "ALP at Day 85/ET, Mean", "setting": "[1]; OCA 50 mg + UDCA, ITT (n = 41)", "result": 227.9, "unit": "U/L"}, {"measurement": "ALP at Day 85/ET, Median", "setting": "[1]; OCA 50 mg + UDCA, ITT (n = 41)", "result": 197.0, "unit": "U/L"}, {"measurement": "inhibition of CYP2C8", "setting": "CYP2C8", "result": "not an inhibitor"}]}
